Converted amounts (≈) assume the structure as drawn. Read-outs that look alike come from different tables or passages of the source.
Columns and labels:
TK+ VZV OKA strain = assay: microbe, parasite or virus in culture; assay type: cell-based, varicella-zoster virus; conditions: Human alphaherpesvirus 3, HEL, read-out: Antiviral Activity EC50 TK+ VZV Strain (OKA)
P. aeruginosa ATCC 27853 = assay: Broth microdilution MIC/MBC; conditions: Pseudomonas aeruginosa, ATCC27853, 24 h, read-out: MIC = MBC
[1] = test system: human embryonic lung (HEL) cells; conditions: minimum cytotoxic concentration causing microscopically detectable alteration of cell morphology
[2] = test system: A. brasiliensis ATCC 16404; assay: Broth microdilution MIC/MBC (antifungal); conditions: Aspergillus brasiliensis
TK– VZV 07-1 strain = assay: microbe, parasite or virus in culture; assay type: cell-based, varicella-zoster virus; conditions: Human alphaherpesvirus 3, HEL, read-out: Antiviral Activity EC50 TK– VZV Strain (07-1)
E. faecalis ATCC 29212 = assay: Broth microdilution MIC/MBC; conditions: Enterococcus faecalis, ATCC29212, 24 h
B. cereus PCM 1948 = assay: Broth microdilution MIC/MBC; conditions: Bacillus cereus
S. aureus ATCC 2593 = assay: Broth microdilution MIC/MBC; conditions: Staphylococcus aureus, ATCC2593, 24 h, read-out: MIC = MBC
C. albicans ATCC 10241 = assay: Broth microdilution MIC/MBC (antifungal); conditions: Candida albicans
E. coli ATCC 25922 = assay: Broth microdilution MIC/MBC; conditions: Escherichia coli
feline herpes viruses = test system: feline herpes viruses; parameters: method as in PMID 24906510, PMID 28763115, PMID 24219992; conditions: read-out: EC50 toward feline herpes viruses; cited from earlier work
[3] = ATCC16404, 72 h, read-out: MIC = MBC
[4] = PCM1948, 24 h, read-out: MIC = MBC
[5] = ATCC25922, 24 h, read-out: MIC = MBC

MIC ([2]; ATCC16404) [µg/mL] | MIC (C. albicans ATCC 10241; ATCC10241) [µg/mL] | MIC (B. cereus PCM 1948; PCM1948) [µg/mL] | Compound | EC50 (TK+ VZV OKA strain) [µM] | MIC (P. aeruginosa ATCC 27853) [µg/mL] | Cytotoxicity Cell Morphology MCC [1] [μM] | MIC [2, 3] [µg/mL] | EC50 (TK– VZV 07-1 strain) [µM] | MBC (E. faecalis ATCC 29212) [µg/mL] | MIC (E. faecalis ATCC 29212) [µg/mL] | MIC (B. cereus PCM 1948; [4]) [µg/mL] | MIC (S. aureus ATCC 2593) [µg/mL] | MIC (C. albicans ATCC 10241; ATCC10241, read-out: MIC = MBC) [µg/mL] | MIC (E. coli ATCC 25922; [5]) [µg/mL] | MIC (E. coli ATCC 25922; ATCC25922) [µg/mL] | MBC ([2]; ATCC16404) [µg/mL] | MBC (C. albicans ATCC 10241; ATCC10241) [µg/mL] | EC50 (feline herpes viruses) [µM]
 |  |  | CCOP(=O)(OCC)C1CC(Cn2c(=O)c3ccccc3n(Cc3ccccc3F)c2=O)ON1Cc1ccccc1 (stereo not drawn) [Diethyl trans-(2-benzyl-5-((1-(2-fluorobenzyl)-2,4-dioxo-1,2-dihydroquinazolin-3(2H)-yl)methyl)isoxazolidin-3-yl)phosphonate] | 12.6 | 2500 (≈ 4.3 mM) | 100 | 5000 (≈ 8.6 mM) | 27.6 | > 5000 | > 5000 | 1250 (≈ 2.15 mM) | 5000 (≈ 8.6 mM) | 2500 (≈ 4.3 mM) | 2500 (≈ 4.3 mM) |  |  |  | 
 |  |  | C=CCn1c(=O)c2ccccc2n(Cc2ccccc2F)c1=O [24b, 3-Allyl-1-(2-fluorobenzyl)quinazoline-2,4-dione] | > 100 | 2500 (≈ 8.06 mM) | >100 | 5000 (≈ 16.1 mM) | 64.5 | > 5000 | > 5000 | 2500 (≈ 8.06 mM) | 5000 (≈ 16.1 mM) | 5000 (≈ 16.1 mM) | 2500 (≈ 8.06 mM) |  |  |  | 
 |  |  | CCOP(=O)(OCC)C1CC(Cn2c(=O)c3ccccc3n(Cc3ccc(F)cc3)c2=O)ON1Cc1ccccc1 (stereo not drawn) [Diethyl trans-(2-benzyl-5-((1-(4-fluorobenzyl)-2,4-dioxo-1,2-dihydroquinazolin-3(2H)-yl)methyl)isoxazolidin-3-yl)phosphonate] | 20 | 2500 (≈ 4.3 mM) | 100 | 5000 (≈ 8.6 mM) | 20 | > 5000 | > 5000 | 1250 (≈ 2.15 mM) | 5000 (≈ 8.6 mM) | 2500 (≈ 4.3 mM) | 1250 (≈ 2.15 mM) | 1250 (≈ 2.15 mM) |  |  | 
 |  |  | C=CCn1c(=O)c2ccccc2n(Cc2cccc(F)c2)c1=O [24c, 3-Allyl-1-(3-fluorobenzyl)quinazoline-2,4-dione] | > 100 | 2500 (≈ 8.06 mM) | >100 | 5000 (≈ 16.1 mM) | > 100 | > 5000 | > 5000 | 5000 (≈ 16.1 mM) | 5000 (≈ 16.1 mM) | 2500 (≈ 8.06 mM) | 1250 (≈ 4.03 mM) | 1250 (≈ 4.03 mM) |  |  | 
 |  |  | CCOP(=O)(OCC)[C@H]1C[C@H](Cn2c(=O)c3ccccc3n(Cc3ccccc3F)c2=O)ON1C (relative stereo) [Diethyl trans-(5-((1-(2-fluorobenzyl)-2,4-dioxo-1,4-dihydroquinazolin-3(2H)-yl)methyl)-2-methylisoxazolidin-3-yl)phosphonate] | 31.7 | 2500 (≈ 4.95 mM) | >100 | 5000 (≈ 9.89 mM) | 58.5 | > 5000 | > 5000 | 1250 (≈ 2.47 mM) | 5000 (≈ 9.89 mM) | 2500 (≈ 4.95 mM) | 2500 (≈ 4.95 mM) |  |  |  | 
 |  |  | O=c1[nH]c(=O)n([C@H]2C[C@H](O)[C@@H](CO)O2)cc1/C=C/Br [Brivudin, reference compound] | 0.026 |  | >300 |  | 12 |  |  |  |  |  |  |  |  |  | 
5 (≈ 0.0163 mM) | 5 (≈ 0.0163 mM) |  | OC(Cn1cncn1)(Cn1cncn1)c1ccc(F)cc1F [Fluconazole, reference compound] |  |  |  |  |  |  |  |  |  |  |  |  | > 5 | > 5 | 
 |  |  | C=CCn1c(=O)c2ccccc2n(Cc2ccccc2)c1=O [24a, 3-Allyl-1-benzylquinazoline-2,4-dione] | 100 | 2500 (≈ 8.55 mM) | >100 | 5000 (≈ 17.1 mM) | 100 | > 5000 | > 5000 | 5000 (≈ 17.1 mM) | 5000 (≈ 17.1 mM) | 5000 (≈ 17.1 mM) | 2500 (≈ 8.55 mM) |  |  |  | 
 |  |  | CCOP(=O)(OCC)[C@H]1C[C@H](Cn2c(=O)c3ccccc3n(Cc3ccc(F)cc3)c2=O)ON1C (relative stereo) [Diethyl trans-(5-((1-(4-fluorobenzyl)-2,4-dioxo-1,4-dihydroquinazolin-3(2H)-yl)methyl)-2-methylisoxazolidin-3-yl)phosphonate] | 58.5 | 2500 (≈ 4.95 mM) | >100 | 5000 (≈ 9.89 mM) | 38.1 | > 5000 | > 5000 | 1250 (≈ 2.47 mM) | 5000 (≈ 9.89 mM) | 2500 (≈ 4.95 mM) | 2500 (≈ 4.95 mM) |  |  |  | 
 |  | 20 (≈ 0.0342 mM) | NCC[C@H](O)C(=O)N[C@@H]1C[C@H](N)[C@@H](O[C@H]2O[C@H](CN)[C@@H](O)[C@H](O)[C@H]2O)[C@H](O)[C@H]1O[C@H]1O[C@H](CO)[C@@H](O)[C@H](N)[C@H]1O [Amikacin, reference compound] |  | 20 (≈ 0.0342 mM) |  |  |  |  | 0.625 (≈ 0.00107 mM) | 20 (≈ 0.0342 mM) | 1 (≈ 0.00171 mM) |  | 0.625 (≈ 0.00107 mM) |  |  |  | 
 |  |  | CCOP(=O)(OCC)[C@H]1C[C@H](Cn2c(=O)c3ccccc3n(Cc3ccccc3)c2=O)ON1Cc1ccccc1 (relative stereo) [Diethyl trans-(2-benzyl-5-((1-benzyl-2,4-dioxo-1,4-dihydroquinazolin-3(2H)-yl)methyl)isoxazolidin-3-yl)phosphonate] | 14.5 | 2500 (≈ 4.44 mM) | 100 | 5000 (≈ 8.87 mM) | 34.2 | > 5000 | > 5000 | 1250 (≈ 2.22 mM) | 5000 (≈ 8.87 mM) | 5000 (≈ 8.87 mM) | 2500 (≈ 4.44 mM) |  |  |  | 
 |  |  | CCOP(=O)(CCCn1cc(Cn2c(=O)n(C(=O)c3ccccc3)c(=O)c3ccccc32)nn1)OCC [compound 7] |  |  |  |  |  |  |  |  |  |  |  |  |  |  | 4
 |  |  | CCOP(=O)(OCC)C1CC(Cn2c(=O)c3ccccc3n(Cc3ccccc3)c2=O)ON1C (stereo not drawn) [cis-20a/trans-20a (10:90), Diethyl trans-5-((1-benzyl-2,4-dioxo-1,4-dihydroquinazolin-3(2H)-yl)methyl)-2-methylisoxazolidin-3-yl)phosphonate] | 31.7 | 2500 (≈ 5.13 mM) | >100 | 5000 (≈ 10.3 mM) | 100 | > 5000 | > 5000 | 1250 (≈ 2.56 mM) | 2500 (≈ 5.13 mM) | 2500 (≈ 5.13 mM) | 1250 (≈ 2.56 mM) | 1250 (≈ 2.56 mM) |  |  | 
 |  |  | C=CCn1c(=O)c2ccccc2n(Cc2ccc(F)cc2)c1=O [24d, 3-Allyl-1-(4-fluorobenzyl)quinazoline-2,4-dione] | 54.7 | 2500 (≈ 8.06 mM) | 100 | 5000 (≈ 16.1 mM) | > 20 | > 5000 | > 5000 | 5000 (≈ 16.1 mM) | 5000 (≈ 16.1 mM) | 2500 (≈ 8.06 mM) | 2500 (≈ 8.06 mM) |  |  |  | 
 |  |  | CCOP(=O)(OCC)C1CC(Cn2c(=O)c3ccccc3n(Cc3cccc(F)c3)c2=O)ON1Cc1ccccc1 (stereo not drawn) [Diethyl trans-(2-benzyl-5-((1-(3-fluorobenzyl)-2,4-dioxo-1,2-dihydroquinazolin-3(2H)-yl)methyl)isoxazolidin-3-yl)phosphonate] | 20 | 2500 (≈ 4.3 mM) | 20 | 5000 (≈ 8.6 mM) | 14.5 | > 5000 | > 5000 | 2500 (≈ 4.3 mM) | 5000 (≈ 8.6 mM) | 2500 (≈ 4.3 mM) | 1250 (≈ 2.15 mM) | 1250 (≈ 2.15 mM) |  |  | 
 |  |  | O=C(c1ccccc1)n1c(=O)c2ccccc2n(Cc2cn(C[C@H](OCc3ccccc3)[C@H](O)P(=O)(OCc3ccccc3)OCc3ccccc3)nn2)c1=O [compound 8] |  |  |  |  |  |  |  |  |  |  |  |  |  |  | 24

Source: article PMC9571433, “Design, Synthesis, Anti-Varicella-Zoster and Antimicrobial Activity of (Isoxazolidin-3-yl)Phosphonate Conjugates of N1-Functionalised Quinazoline-2,4-Diones” (Molecules, 2022)
